Measurements published in PMC8399847, “Hybrid Quinolinyl Phosphonates as Heterocyclic Carboxylate Isosteres: Synthesis and Biological Evaluation against Topoisomerase 1B (TOP1B)” (Pharmaceuticals, 2021).

Assays:
[1] = test system: SKOV3 (human ovarian carcinoma); test: CCK-8 cytotoxicity assay, SKOV3; format: cell-based; conditions: SK-OV-3, 48 h, read-out: Cytotoxicity IC50 Ovarian SKOV3
Procedure: (§1) The cytotoxicity of the newly synthesized quinolinylphosphonates 7 was evaluated in vitro by testing their antiproliferative activities against several human cancer cell lines: A549 (human lung adenocarcinoma cells), SKOV3 (human ovarian carcinoma), and HEK293 (human embryonic kidney). In order to analyze the selective cytotoxicity facing exclusively cancerous cell lines, cytotoxicity against non-cancerous cell lines (MRC-5, lung fibroblast cells) was also evaluated. Cell counting kit (CCK-8) assay was employed to assess growth inhibition and, cell proliferation inhibitory activities of compounds that are listed in Table 1 as IC50 values. […] According to the data presented in Table 1, in general, all these phosphorated derivatives present higher selective cytotoxicity in the A549 cell line than in the other two cell lines, SKOV3 and HEK293, although slight differences are observed compared to human ovarian carcinoma (SKOV3).
(§2) Cells were cultured according to the supplier’s instructions, A549 (ATCC® CCL-185), SKOV3 (ATCC® HTB-77), HEK293 (CLS GmbH), MRC-5 (ATCC® CCL-171™). Cells were seeded in 96-well plates at a density of 2–2.5 × 10^3 cells per well and incubated overnight in 0.1 mL of media supplied with 10% Fetal Bovine Serum (Lonza, Basel, Switzerland) in a 5% CO2 incubator at 37 °C. On day 2, drugs (concentration between 0.5–50 μM) were added and samples were incubated for 48 h. After treatment, 10 μL of cell counting kit-8 was added to each well for an additional 2 h incubation at 37 °C. The absorbance of each well was determined by an Automatic Elisa Reader System at 450 nm wavelength. CPT was purchased from Sigma-Aldrich and used as a positive control.

[2] = CCK-8 cytotoxicity assay, MRC-5 non-cancerous cells; format: cell-based; conditions: human, MRC-5 non-malignant lung fibroblasts
Procedure: as §1, §2

L. infantum amastigotes = test: Ex vivo murine splenic explant culture, intramacrophage amastigotes; format: cell-based; conditions: Leishmania infantum, Hec50; intramacrophage amastigotes in splenic explants, 96 h, EC50 ± SD
Procedure: The effect of the new quinolinylphosphonate derivatives 7 synthesized was assessed on both free-living promastigotes and intramacrophage amastigotes of L. infantum as it is described in experimental protocols. Primary cultures of intramacrophage amastigotes were obtained from splenic explants from 6-weeks infected Balb/c mice with L. infantum-iRFP promastigotes. The infrared fluorescence emitted by both stage forms of the parasite was used as viability criterium, using 0.5% DMSO as negative control (100% viability) and […] AMB as a positive control (0% viability).
The EC50 values of compounds against the amastigote forms were calculated using a cell suspension obtained from spleens extracted from BALB/c mice. Mice had been infected previously with iRFP L. infantum metacyclic promastigotes and sacrificed five weeks after infection. To obtain the cell suspension containing amastigotes, spleens washed with cold phosphate-buffered saline (PBS), were cut into pieces, and incubated with 5 mL of 2 mg/mL collagenase D (Sigma, Darmstadt, Germany), which was prepared in buffer (10 mM HEPES, pH 7.4, 150 mM NaCl, 5 mM KCl, 1 mM MgCl2 and 1.8 mM CaCl2) for 20 min. Subsequently, these cells were passed through a 100 µm cell strainer, collected by centrifugation (500× g for 7 min at 4 °C), washed twice with PBS, and suspended in RPMI medium (Gibco, Thermo Fisher Scientific, MA, USA) supplemented with 10 mM HEPES, 1 mM sodium pyruvate, 1xRPMI 1640 vitamin mix, 10% (v/v) FBS, 50 U/mL penicillin and 50 µg/mL streptomycin, at 37 °C under a 5% CO2 atmosphere.
To assay the effect of the different compounds against amastigotes, which infect splenic cells, these cells were seeded to confluence into 384-well black optical bottom plates (Thermo Scientific, Waltham, MA, USA) in addition to different concentrations of compound to each well. The viability of amastigotes was calculated by recording their fluorescence at 708 nm in an Odyssey (Li-Cor, NE, USA) infrared imaging system, after 96 h of exposure. Plots of the infrared fluorescence against the concentrations of tested compounds were fitted by nonlinear analysis using the Sigma Plot 10.1 statistical package and used to calculate EC50 values. As well as promastigotes viability, the assays were performed in triplicate.

murine splenocytes = test: Splenocyte viability, Alamar Blue; format: cell-based, BALB/c mice; conditions: for IC50: Mus musculus, Splenocyte, read-out: IC50 Splenocites; for SI (selectivity index): ratio IC50 splenic cells / EC50 amastigotes
Procedure: The viability of splenocytes cells against the different compounds was measured using the Alamar Blue staining method (Invitrogen, MA, USA). For this purpose, these cells were obtained following the protocol indicated in the previous section, from uninfected mice. Plots of absorbance of viable cells (obtained following manufacturer’s recommendations of Alamar Blue) vs compounds concentration were used to calculate CC50 values. Plots were fitted by nonlinear analysis using the Sigma Plot 10.1 statistical package. The assays were performed by triplicate.
The selectivity index for each compound was calculated as the ratio between the IC50 value for splenic cells and the EC50 value for amastigotes.

SMILES	IC50 [1] [µM]	IC50 at 48 h [2] [µM]	EC50 (L. infantum amastigotes) [µM]	IC50 (murine splenocytes) [µM]	SI (selectivity index) (murine splenocytes)	melting point [°C]
CCOP(=O)(OCC)c1cccc2c(-c3ccccc3)cc(-c3ccccc3)nc12 [7a, Diethyl (2,4-diphenylquinolin-8-yl)phosphonate]	9.3 ± 0.76	> 50	4.03 ± 0.3	3.61 ± 0.45	0.9	118 to 120
CCOP(=O)(OCC)c1cccc2c(-c3ccccc3)cc(-c3ccc(F)cc3)nc12 [7b, Diethyl (4-Phenyl-2-(fluorophenyl)quinolin-8-il) phosphonate]	5.29 ± 1.42	> 50	14.6 ± 1.3	12.2 ± 1.77	0.8	116 to 118
CCOP(=O)(OCC)c1cccc2c(-c3ccccc3)cc(-c3ccc(OC)cc3)nc12 [7c, Diethyl (2-(4-methoxyphenyl)-4-phenylquinolin-8-yl)phosphonate]	25 ± 3.6	> 50	8.23 ± 1.7	15.9 ± 1.65	1.9	120 to 122
CCOP(=O)(OCC)c1cccc2c(-c3ccccc3)cc(-c3ccccc3OC)nc12 [7d, Diethyl (2-(2-methoxyphenyl)-4-phenylquinolin-8-yl)phosphonate]	19.4 ± 1.6	> 50	19.5 ± 2.38	30.1 ± 6.05	1.5	121 to 123
CCOP(=O)(OCC)c1cccc2c(-c3ccccc3)cc(-c3ccc4ccccc4c3)nc12 [7e, Diethyl (2-(naphthalen-2-yl)-4-phenylquinolin-8-yl)phosphonate]	1.33 ± 0.76	> 50	20.4 ± 5.62	51.6 ± 1.52	2.5	135 to 137
CCOP(=O)(OCC)c1cccc2c(-c3ccccc3)cc(-c3cccc4ccccc34)nc12 [7f, Diethyl (2-(naphthalen-1-yl)-4-phenylquinolin-8-yl)phosphonate]	4.54 ± 0.52	> 50	19.7 ± 2.39	12.2 ± 1.49	0.6	140 to 142
CCOP(=O)(OCC)c1cccc2c(-c3ccc(F)cc3)cc(-c3ccccc3)nc12 [7g]	9.29 ± 1.79	> 50	11.9 ± 5.17	33.9 ± 7.98	2.8	172 to 174
CCOP(=O)(OCC)c1cccc2c(-c3ccc(F)cc3)cc(-c3ccc(F)cc3)nc12 [7h, Diethyl (2,4-bis(4-fluorophenyl)quinolin-8-yl)phosphonate]	9.79 ± 0.59	> 50	24.2 ± 2.37	20.3 ± 7.49	0.8	121 to 123
CCOP(=O)(OCC)c1cccc2c(-c3ccc(F)cc3)cc(-c3ccc(F)c(F)c3)nc12 [7i, Diethyl (2-(3,4-difluorophenyl)-4-(4-fluorophenyl)quinolin-8-yl)phosphonate]	37.6 ± 9.1	> 50	13.4 ± 5.53	20.6 ± 3.11	1.5	159 to 161
CCOP(=O)(OCC)c1cccc2c(-c3ccc(C)cc3)cc(-c3ccc(F)cc3)nc12 [7j, Diethyl (2-(4-fluorophenyl)-4-(p-tolyl)quinolin-8-yl)phosphonate]	10.2 ± 0.38	> 50	9.8 ± 0.48	14.5 ± 1.56	1.5	139 to 141
CCOP(=O)(OCC)c1cccc2c(-c3ccc(C)cc3)cc(-c3ccc(F)c(F)c3)nc12 [7k, Diethyl (2-(3,4-difluorophenyl)-4-(p-tolyl)quinolin-8-yl)phosphonate]	10.6 ± 1.13	> 50	26.2 ± 3.65	24.1 ± 7.79	0.9	133 to 135
CC(C)OP(=O)(OC(C)C)c1cccc2c(-c3ccccc3)cc(-c3ccc(F)cc3)nc12 [7l, Diisopropyl (2-(4-fluorophenyl)-4-phenylquinolin-8-yl)phosphonate]	18.7 ± 1.98	> 50	19.5 ± 2.23	22.1 ± 4.7	1.1	107 to 109
CC(C)OP(=O)(OC(C)C)c1cccc2c(-c3ccccc3)cc(-c3ccc(F)c(F)c3)nc12 [7m, Diisopropyl (2-(3,4-difluorophenyl)-4-phenylquinolin-8-yl)phosphonate]	12.1 ± 1.7	> 50	10.2 ± 1.34	19.8 ± 3.76	1.9	127 to 129
CC(C)OP(=O)(OC(C)C)c1cccc2c(-c3ccc(F)cc3)cc(-c3ccc(F)cc3)nc12 [7n, Diisopropyl (2,4-bis(4-fluorophenyl)quinolin-8-yl)phosphonate]	19.8 ± 3.83	> 50	5.52 ± 1.11	15.3 ± 1.72	2.8	113 to 115
CC(C)OP(=O)(OC(C)C)c1cccc2c(-c3ccc(F)cc3)cc(-c3ccc(F)c(F)c3)nc12 [7o, Diisopropyl (2-(3,4-difluorophenyl)-4-(4-fluorophenyl)quinolin-8-yl)phosphonate]	22.1 ± 4.47	> 50	19.7 ± 1.73	18.6 ± 1.1	0.9	144 to 146
